The text below walks through data of ChEMBL document CHEMBL6074636, “Design and activity evaluation of new EGFR tyrosine kinase inhibitors containing cyclic polyamines” (Bioorg Med Chem Lett, 2024).

What is called IC50 is the concentration needed to halve the response being measured.

Calls of active or inactive are those of the source. The calls are words filed in the database; no cut-off is given here.

The subject of one series is NCI-H1975. Put plainly: cells. Type of series: functional, cell-based. As to conditions: Homo sapiens, NCI-H1975, 48 h.
In another series the test system is A549. The experiment in a line: cells. Type of series: functional, cell-based. As to conditions: Homo sapiens, A549, 48 h.
For series [1], the target named is Epidermal growth factor receptor (Homo sapiens, UniProt P00533, C797S/L858R/T790M). Put plainly: Inhibition of EGFR L858R/T790M/C797S triple mutant (unknown origin).
Series [2] concerns the target Epidermal growth factor receptor (Homo sapiens, UniProt P00533, EX19DEL). The experiment in a line: Inhibition of EGFR del19 mutant (unknown origin).
Series [3] has as its system PC-9. Put plainly: cells. The format is functional, cell-based. As to conditions: Homo sapiens, PC-9, 48 h.
Description: Antiproliferative activity against human PC-9 cells assessed as inhibition of cell growth incubated for 48 hrs by CCK assay
In series [4] the test system is PC-9. The experiment in a line: cells. Type of series: functional, cell-based. The settings on record: Homo sapiens, PC-9, 48 h. This is another data set of the same source.
Description: Antiproliferative activity against human PC-9 cells expressing EGFR del19/T790M/C797S triple mutant assessed as inhibition of cell growth incubated for 48 hrs by CCK assay
In series [5] the test system is PC-9. The experiment in a line: Inhibition of colony formation in human PC-9 cells expressing EGFR del19/T790M/C797S triple mutant at 100 nM. The format is functional, cell-based.
Series [6] is described as follows: Cytotoxicity against human BEAS-2B cells assessed as inhibition of cell growth incubated for 48 hrs by CCK-8 assay. Type of series: toxicity, cell-based. A general note: Formazan colour is commonly taken as a measure of viable cells.
Series [7] in a line: Selectivity index, ratio of IC50 for cytotoxicity against human BEAS-2B cells assessed as inhibition of cell growth to IC50 for antiproliferative activity against human PC-9 cells expressing EGFR del19/T790M/C797S triple mutant assessed as inhibition of cell growth. The settings on record: read-out: Ratio IC50. The format is toxicity, cell-based.
For series [8], the system named is PC-9. The experiment in a line: Antiproliferative activity against human PC-9 cells expressing EGFR del19/T790M/C797S triple mutant assessed as reduction in cell proliferation at 100 to 500 nM incubated for 48 hrs Edu staining based analysis. Type of series: functional. As to conditions: dose 100-500 nM.
For series [9], the system named is PC-9. The experiment in a line: Inhibition of cell migration in human PC-9 cells expressing EGFR del19/T790M/C797S triple mutant at 1 uM incubated for 48 hrs by transwell assay. The format is functional, cell-based.
Series [10] concerns PC-9. Put plainly: Inhibition of colony formation in human PC-9 cells expressing EGFR del19/T790M/C797S triple mutant at 1 uM. Type of series: functional, cell-based.

Epidermal growth factor receptor (Homo sapiens, UniProt P00533, EX19DEL), sequence (P00533 whole entry, looked up, stated change not applied): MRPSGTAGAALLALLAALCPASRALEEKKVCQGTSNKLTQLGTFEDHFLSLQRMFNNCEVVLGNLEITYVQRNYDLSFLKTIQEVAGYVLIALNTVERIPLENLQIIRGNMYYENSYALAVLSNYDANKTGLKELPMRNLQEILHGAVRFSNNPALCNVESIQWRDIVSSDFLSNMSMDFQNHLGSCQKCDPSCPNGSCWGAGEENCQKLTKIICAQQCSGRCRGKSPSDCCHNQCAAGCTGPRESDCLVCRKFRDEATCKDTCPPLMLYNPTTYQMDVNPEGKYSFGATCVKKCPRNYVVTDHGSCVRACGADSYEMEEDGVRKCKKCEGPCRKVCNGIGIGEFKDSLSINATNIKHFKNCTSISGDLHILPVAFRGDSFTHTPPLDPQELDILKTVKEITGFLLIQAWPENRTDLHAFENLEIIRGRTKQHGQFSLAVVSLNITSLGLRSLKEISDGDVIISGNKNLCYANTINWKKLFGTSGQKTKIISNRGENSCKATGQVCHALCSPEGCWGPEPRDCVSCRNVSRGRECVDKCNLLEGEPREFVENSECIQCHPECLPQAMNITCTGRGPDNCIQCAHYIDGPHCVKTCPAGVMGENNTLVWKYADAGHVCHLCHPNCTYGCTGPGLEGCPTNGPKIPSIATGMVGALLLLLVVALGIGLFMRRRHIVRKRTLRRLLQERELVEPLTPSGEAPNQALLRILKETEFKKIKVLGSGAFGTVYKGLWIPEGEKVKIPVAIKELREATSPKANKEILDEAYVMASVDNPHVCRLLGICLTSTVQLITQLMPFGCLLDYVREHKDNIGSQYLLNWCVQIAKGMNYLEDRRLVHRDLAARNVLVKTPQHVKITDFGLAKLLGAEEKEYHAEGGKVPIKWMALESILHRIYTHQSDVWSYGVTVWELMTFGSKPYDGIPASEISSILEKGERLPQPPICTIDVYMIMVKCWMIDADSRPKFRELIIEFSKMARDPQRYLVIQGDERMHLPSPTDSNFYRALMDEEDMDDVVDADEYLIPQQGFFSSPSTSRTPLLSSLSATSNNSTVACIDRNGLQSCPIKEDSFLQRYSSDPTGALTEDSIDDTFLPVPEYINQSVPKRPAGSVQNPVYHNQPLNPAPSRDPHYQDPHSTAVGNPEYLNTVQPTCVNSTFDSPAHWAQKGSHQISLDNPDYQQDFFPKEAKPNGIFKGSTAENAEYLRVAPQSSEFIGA
Epidermal growth factor receptor (Homo sapiens, UniProt P00533, C797S/L858R/T790M), sequence (P00533 25-1210 T790M/C797S/L858R limits assumed): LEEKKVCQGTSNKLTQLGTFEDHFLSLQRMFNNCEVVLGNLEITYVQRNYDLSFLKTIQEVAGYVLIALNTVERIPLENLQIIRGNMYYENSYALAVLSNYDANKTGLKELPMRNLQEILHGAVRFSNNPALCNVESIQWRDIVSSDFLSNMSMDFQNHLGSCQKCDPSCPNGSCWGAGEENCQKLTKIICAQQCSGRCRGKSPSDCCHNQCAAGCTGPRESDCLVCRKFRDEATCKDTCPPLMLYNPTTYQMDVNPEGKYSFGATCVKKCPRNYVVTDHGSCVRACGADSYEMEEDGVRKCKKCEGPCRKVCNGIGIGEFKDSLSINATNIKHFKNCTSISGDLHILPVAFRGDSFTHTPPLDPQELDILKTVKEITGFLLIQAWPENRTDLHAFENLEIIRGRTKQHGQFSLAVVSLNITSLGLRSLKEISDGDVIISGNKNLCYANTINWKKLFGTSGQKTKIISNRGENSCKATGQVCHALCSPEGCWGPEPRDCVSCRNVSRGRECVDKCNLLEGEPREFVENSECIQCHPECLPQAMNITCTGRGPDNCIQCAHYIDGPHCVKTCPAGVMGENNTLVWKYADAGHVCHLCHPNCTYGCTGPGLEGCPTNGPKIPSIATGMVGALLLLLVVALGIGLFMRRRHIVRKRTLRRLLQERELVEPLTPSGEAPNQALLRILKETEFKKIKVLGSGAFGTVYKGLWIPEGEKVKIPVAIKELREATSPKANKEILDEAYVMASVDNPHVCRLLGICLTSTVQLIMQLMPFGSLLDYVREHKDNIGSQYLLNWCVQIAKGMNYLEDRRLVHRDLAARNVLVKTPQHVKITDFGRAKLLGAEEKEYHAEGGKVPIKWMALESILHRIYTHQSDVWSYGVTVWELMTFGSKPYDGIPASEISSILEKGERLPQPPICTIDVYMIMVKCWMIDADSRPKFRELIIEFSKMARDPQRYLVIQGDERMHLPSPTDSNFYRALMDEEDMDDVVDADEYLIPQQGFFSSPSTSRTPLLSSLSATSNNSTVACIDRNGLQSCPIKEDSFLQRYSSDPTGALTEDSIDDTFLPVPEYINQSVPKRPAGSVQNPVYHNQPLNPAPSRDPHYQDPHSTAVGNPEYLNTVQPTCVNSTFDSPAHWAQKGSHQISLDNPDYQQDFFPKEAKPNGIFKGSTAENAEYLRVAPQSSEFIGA
Description for A549: Antiproliferative activity against human A549 cells expressing wild type EGFR assessed as inhibition of cell growth incubated for 48 hrs by CCK assay
Description for NCI-H1975: Antiproliferative activity against human NCI-H1975 cells assessed as inhibition of cell growth incubated for 48 hrs by CCK assay

Regarding `O=C(O)CN1CCN(CC(=O)O)CC(=O)Nc2cc3c(Nc4ccc(OCc5cccc(F)c5)c(Cl)c4)ncnc3cc2NC(=O)C1`, the 50% inhibitory concentration (IC50) with NCI-H1975 was found to be 2.49 µM; with A549, 4.02 µM; in series [1] it was 0.22 µM; in [2], 0.18 µM; with PC-9 [3] it was 6.57 µM; in the series with PC-9 [4], 1.09 µM.
As to `O=C1CNCCNCC(=O)Nc2cc3c(Nc4ccc(F)c(Cl)c4)ncnc3cc2N1`, the half-inhibitory concentration (IC50) in the series with NCI-H1975 was 4.43 µM; in the series with A549, 1.38 µM; in series [1], more than 1000 µM; in series [2] it was more than 1000 µM; with PC-9 [3], 12.5 µM; in the series with PC-9 [4], 4.61 µM.
For the molecule `O=C(O)CN1CCN(CC(=O)O)CC(=O)Nc2cc3c(Nc4ccccc4)ncnc3cc2NC(=O)C1`, the concentration for half-maximal inhibition (IC50) in the series on NCI-H1975 is 3.91 µM; in the series with A549, 3.91 µM; in the series with PC-9 [3], 32.9 µM; in the series with PC-9 [4], 14.2 µM.
In the case of `O=C(O)CN1CCN(CC(=O)O)CC(=O)Nc2cc3c(Nc4cccc(Br)c4)ncnc3cc2NC(=O)C1`, the IC50 is 4.41 µM in the series on NCI-H1975, more than 100 µM with A549, 31.6 µM in the series on PC-9 [3] and 3.6 µM with PC-9 [4].
On to `O=C(O)CN1CCN(CC(=O)O)CC(=O)Nc2cc3c(Nc4cccc(Cl)c4)ncnc3cc2NC(=O)C1`, for which the IC50 with NCI-H1975 was 23.3 µM; with A549, 2.26 µM; with PC-9 [3], 30.7 µM; in the series on PC-9 [4], 84 µM.
In the case of `C#Cc1cccc(Nc2ncnc3cc4c(cc23)OCCOCCOCCO4)c1` [ICOTINIB], the half-inhibitory concentration (IC50) with NCI-H1975 is 5.75 µM; with A549 it was 56 µM; in the series with PC-9 [3], 1.53 µM; in the series with PC-9 [4], 1.26 µM.
Turning to `O=C(O)CN1CCN(CC(=O)O)CC(=O)Nc2cc3c(Nc4ccc(Cl)cc4Cl)ncnc3cc2NC(=O)C1`, the half-inhibitory concentration (IC50) in the series with NCI-H1975 was 4.54 µM; with A549 it was more than 100 µM; in the series on PC-9 [3], 1.66 µM; in the series on PC-9 [4], 11 µM.
The like results for `CCc1cc(Br)ccc1Nc1ncnc2cc3c(cc12)NC(=O)CN(CC(=O)O)CCN(CC(=O)O)CC(=O)N3` were, in that order, 4.85 µM, 3.32 µM, 49.3 µM and 3.43 µM.
In the case of `CCc1cccc(Nc2ncnc3cc4c(cc23)NC(=O)CN(CC(=O)O)CCN(CC(=O)O)CC(=O)N4)c1`, the half-inhibitory concentration (IC50) was 8.11 µM in the series with NCI-H1975; more than 100 µM in the series on A549; 0.321 µM in [1]; 0.378 µM in [2]; 10.2 µM in the series with PC-9 [3]; 1.52 µM in the series with PC-9 [4].
Consider `COc1cccc(Nc2ncnc3cc4c(cc23)NC(=O)CN(CC(=O)O)CCN(CC(=O)O)CC(=O)N4)c1`, for which the concentration for half-maximal inhibition (IC50) was 3.04 µM with NCI-H1975, 35.1 µM with A549, 12.3 µM in the series with PC-9 [3] and 6.7 µM with PC-9 [4].
For `O=C(O)CN1CCN(CC(=O)O)CC(=O)Nc2cc3c(Nc4cccc(F)c4)ncnc3cc2NC(=O)C1`, the IC50 in the series on NCI-H1975 turned out to be 1.41 µM; with A549, 0.946 µM; in series [1], 0.161 µM; in [2], 0.136 µM; in the series on PC-9 [3], 1.13 µM; with PC-9 [4], 0.496 µM. Moreover, the inhibition result with PC-9 [5], in the series with PC-9 [9] and with PC-9 [10] was “Active” throughout. Also, in series [6], the half-maximal inhibitory concentration (IC50) at 48 h is 17.2 µM. Further, the selectivity ratio in series [7] was determined as 34.7. Besides, in the series on PC-9 [8], the result was Active.
In the case of `O=C(O)CN1CCN(CC(=O)O)CC(=O)Nc2cc3c(Nc4ccc(F)c(Cl)c4)ncnc3cc2NC(=O)C1`, the IC50 with NCI-H1975 was 18.9 µM; with A549 it was more than 100 µM; in the series on PC-9 [3], 7.87 µM; in the series with PC-9 [4], 13.2 µM.
For `C=CC(=O)Nc1cc(Nc2nccc(-c3cn(C)c4ccccc34)n2)c(OC)cc1N(C)CCN(C)C` [OSIMERTINIB], the half-maximal inhibitory concentration (IC50) in the series with NCI-H1975 is […]; in the series on A549 it was 0.637 µM; with PC-9 [3] it was 0.08 µM; in the series with PC-9 [4], 0.912 µM. Further, the IC50 at 48 h in series [6] was 20.1 µM.
`O=C(O)CN1CCN(CC(=O)O)CC(=O)Nc2cc3c(Nc4ccc(Br)cc4F)ncnc3cc2NC(=O)C1`: the IC50 in the series on NCI-H1975 stood at 3.44 µM; with A549 it was 7.78 µM; in series [1] it was 0.251 µM; in [2], 0.161 µM; in the series on PC-9 [3], 2.7 µM; in the series on PC-9 [4] it was 0.767 µM.
